Results on 13 molecules are retold here after patent publication US8574563B2 (Bristol-Myers Squibb Company, priority 2006, dated 2013).

The assay concerns HCV 1b-377-neo replicon cells. Briefly: HCV replicon assay, HCV 1b-377-neo replicon cells (1b FRET). Type of assay: cell-based, Hepatitis C virus genotype 1b. Conditions: Hepatitis C virus, HCV 1b-377-neo replicon cells; HCV 1b genotype; read-out: EC50 range against HCV 1b (Table 2, Range). In short, it runs like this: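 FRET-based replicon assay in HCV 1b-377-neo cells, including a comparison line carrying the NS5A Y2065H mutation that confers resistance to a reference compound.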

A word on the EC50: it is the concentration needed to bring the measured effect to its halfway point. With `COC(=O)N[C@@H](Cc1c[nH]c2ccccc12)C(=O)N1CCC[C@H]1c1ncc(-c2ccc(-c3ccc(-c4cnc([C@@H]5CCCN5C(=O)[C@@H](NC(=O)OC)[C@@H](C)OC)[nH]4)cc3)cc2)[nH]1` [cj-100, methyl ((1S)-1-(1H-indol-3-ylmethyl)-2-((2S)-2-(5-(4′-(2-((2S)-1-((2S,3R)-3-methoxy-2-((methoxycarbonyl)amino)butanoyl)-2-pyrrolidinyl)-1H-imidazol-5-yl)-4-biphenylyl)-1H-imidazol-2-yl)-1-pyrrolidinyl)-2-oxoethyl)carbamate], the EC50 lay within 0.001 to 0.999 nM.

As to `CCN(CC)[C@@H](C(=O)N1CCC[C@H]1c1ncc(-c2ccc(-c3ccc(-c4cnc([C@@H]5CCCN5C(=O)[C@H](Cc5c[nH]c6ccccc56)NC(=O)OC)[nH]4)cc3)cc2)[nH]1)c1ccccc1` [cj-101, methyl ((1S)-2-((2S)-2-(5-(4′-(2-((2S)-1-((2R)-2-(diethylamino)-2-phenylacetyl)-2-pyrrolidinyl)-1H-imidazol-5-yl)-4-biphenylyl)-1H-imidazol-2-yl)-1-pyrrolidinyl)-1-(1H-indol-3-ylmethyl)-2-oxoethyl)carbamate], the EC50 lay within 0.001 to 0.999 nM.

On to `COC(=O)N[C@@H](C)C(=O)N1CCC[C@H]1c1ncc(-c2ccc(-c3ccc(-c4cnc([C@@H]5CCCN5C(=O)[C@H](Cc5c[nH]c6ccccc56)NC(=O)OC)[nH]4)cc3)cc2)[nH]1` [cj-102, methyl ((1S)-2-((2S)-2-(5-(4′-(2-((2S)-1-((2S)-3-(1H-indol-3-yl)-2-((methoxycarbonyl)amino)propanoyl)-2-pyrrolidinyl)-1H-imidazol-5-yl)-4-biphenylyl)-1H-imidazol-2-yl)-1-pyrrolidinyl)-1-methyl-2-oxoethyl)carbamate], for which the EC50 was 0.001 to 0.999 nM.

Consider `COC(=O)N[C@@H](Cc1ccc(CN)cc1)C(=O)N1CCC[C@H]1c1ncc(-c2ccc(-c3ccc(-c4cnc([C@@H]5CCCN5C(=O)[C@@H](NC(=O)OC)C(C)C)[nH]4)cc3)cc2)[nH]1` [cj-103, methyl ((1S)-1-(4-(aminomethyl)benzyl)-2-((2S)-2-(5-(4′-(2-((2S)-1-((2S)-2-((methoxycarbonyl)amino)-3-methylbutanoyl)-2-pyrrolidinyl)-1H-imidazol-5-yl)-4-biphenylyl)-1H-imidazol-2-yl)-1-pyrrolidinyl)-2-oxoethyl)carbamate], for which the concentration giving a half-maximal response (EC50) lay within 0.001 to 0.999 nM.

As to `COC(=O)N[C@@H](Cc1ccc(OCc2ccccc2)cc1)C(=O)N1CCC[C@H]1c1ncc(-c2ccc(-c3ccc(-c4cnc([C@@H]5CCCN5C(=O)[C@@H](NC(=O)OC)C(C)C)[nH]4)cc3)cc2)[nH]1` [cj-104, methyl ((1S)-1-(((2S)-2-(5-(4′-(2-((2S)-1-(O-benzyl-N-(methoxycarbonyl)-L-tyrosyl)-2-pyrrolidinyl)-1H-imidazol-5-yl)-4-biphenylyl)-1H-imidazol-2-yl)-1-pyrrolidinyl)carbonyl)-2-methylpropyl)carbamate], the EC50 is 0.001 to 0.999 nM.

As to `COC(=O)N[C@@H](Cc1ccc(OCc2ccccc2)cc1)C(=O)N1CCC[C@H]1c1ncc(-c2ccc(-c3ccc(-c4cnc([C@@H]5CCCN5C(=O)[C@@H](NC(=O)OC)[C@@H](C)OC)[nH]4)cc3)cc2)[nH]1` [cj-105, methyl ((1S,2R)-1-(((2S)-2-(5-(4′-(2-((2S)-1-(O-benzyl-N-(methoxycarbonyl)-L-tyrosyl)-2-pyrrolidinyl)-1H-imidazol-5-yl)-4-biphenylyl)-1H-imidazol-2-yl)-1-pyrrolidinyl)carbonyl)-2-methoxypropyl)carbamate], the EC50 lay in the range of 0.001 to 0.999 nM.

Take `CCN(CC)[C@@H](C(=O)N1CCC[C@H]1c1ncc(-c2ccc(-c3ccc(-c4cnc([C@@H]5CCCN5C(=O)[C@H](Cc5ccc(OCc6ccccc6)cc5)NC(=O)OC)[nH]4)cc3)cc2)[nH]1)c1ccccc1` [cj-106, methyl ((1S)-1-(4-(benzyloxy)benzyl)-2-((2S)-2-(5-(4′-(2-((2S)-1-((2R)-2-(diethylamino)-2-phenylacetyl)-2-pyrrolidinyl)-1H-imidazol-5-yl)-4-biphenylyl)-1H-imidazol-2-yl)-1-pyrrolidinyl)-2-oxoethyl)carbamate]: the EC50 was 0.001 to 0.999 nM.

`COC(=O)N[C@@H](C)C(=O)N1CCC[C@H]1c1ncc(-c2ccc(-c3ccc(-c4cnc([C@@H]5CCCN5C(=O)[C@H](Cc5ccc(OCc6ccccc6)cc5)NC(=O)OC)[nH]4)cc3)cc2)[nH]1` [cj-107, methyl ((1S)-1-(4-(benzyloxy)benzyl)-2-((2S)-2-(5-(4′-(2-((2S)-1-(N-(methoxycarbonyl)-L-alanyl)-2-pyrrolidinyl)-1H-imidazol-5-yl)-4-biphenylyl)-1H-imidazol-2-yl)-1-pyrrolidinyl)-2-oxoethyl)carbamate]: the EC50 fell in the range of 0.001 to 0.999 nM.

`COC(=O)N[C@@H](C)C(=O)N1CCC[C@H]1c1ncc(-c2ccc(-c3ccc(-c4cnc([C@@H]5CCCN5C(=O)[C@@H]5CCC[C@H]5NC(=O)OC)[nH]4)cc3)cc2)[nH]1` [cj-108, methyl ((1R,2R)-2-(((2S)-2-(5-(4′-(2-((2S)-1-(N-(methoxycarbonyl)-L-alanyl)-2-pyrrolidinyl)-1H-imidazol-5-yl)-4-biphenylyl)-1H-imidazol-2-yl)-1-pyrrolidinyl)carbonyl)cyclopentyl)carbamate]: the 50% effective concentration (EC50) fell in the range of 0.001 to 0.999 nM.

For the molecule `CCN(CC)[C@@H](C(=O)N1CCC[C@H]1c1ncc(-c2ccc(-c3ccc(-c4cnc([C@@H]5CCCN5C(=O)[C@@H]5CCC[C@H]5NC(=O)OC)[nH]4)cc3)cc2)[nH]1)c1ccccc1` [cj-109, methyl ((1R,2R)-2-(((2S)-2-(5-(4′-(2-((2S)-1-((2R)-2-(diethylamino)-2-phenylacetyl)-2-pyrrolidinyl)-1H-imidazol-5-yl)-4-biphenylyl)-1H-imidazol-2-yl)-1-pyrrolidinyl)carbonyl)cyclopentyl)carbamate], the 50% effective concentration (EC50) lay within 0.001 to 0.999 nM.

On to `COC(=O)N[C@@H](C(=O)N1CCC[C@H]1c1ncc(-c2ccc(-c3ccc(-c4cnc([C@@H]5CCCN5C(=O)[C@@H]5CCC[C@H]5NC(=O)OC)[nH]4)cc3)cc2)[nH]1)c1ccccc1` [cj-110, methyl ((1R)-2-((2S)-2-(5-(4′-(2-((2S)-1-(((1R,2R)-2-((methoxycarbonyl)amino)cyclopentyl)carbonyl)-2-pyrrolidinyl)-1H-imidazol-5-yl)-4-biphenylyl)-1H-imidazol-2-yl)-1-pyrrolidinyl)-2-oxo-1-phenylethyl)carbamate], for which the EC50 lay in the range of 0.001 to 0.999 nM.

As to `COC(=O)N[C@@H](Cc1ccc(O)cc1)C(=O)N1CCC[C@H]1c1ncc(-c2ccc(-c3ccc(-c4cnc([C@@H]5CCCN5C(=O)[C@@H](NC(=O)OC)C(C)C)[nH]4)cc3)cc2)[nH]1` [cj-111, methyl ((1S)-1-(4-hydroxybenzyl)-2-((2S)-2-(5-(4′-(2-((2S)-1-((2S)-2-((methoxycarbonyl)amino)-3-methylbutanoyl)-2-pyrrolidinyl)-1H-imidazol-5-yl)-4-biphenylyl)-1H-imidazol-2-yl)-1-pyrrolidinyl)-2-oxoethyl)carbamate], the EC50 lay within 0.001 to 0.999 nM.

Consider `CCN(CC)[C@@H](C(=O)N1CCC[C@H]1c1ncc(-c2ccc(-c3ccc(-c4cnc([C@@H]5CCCN5C(=O)[C@H](Cc5ccc(O)cc5)NC(=O)OC)[nH]4)cc3)cc2)[nH]1)c1ccccc1` [cj-112, methyl ((1S)-2-((2S)-2-(5-(4′-(2-((2S)-1-((2R)-2-(diethylamino)-2-phenylacetyl)-2-pyrrolidinyl)-1H-imidazol-5-yl)-4-biphenylyl)-1H-imidazol-2-yl)-1-pyrrolidinyl)-1-(4-hydroxybenzyl)-2-oxoethyl)carbamate], for which the EC50 lay within 0.001 to 0.999 nM.
